Data reported in patent US6680327B2, “Crystalline form VII of cabergoline” (Pharmacia Italia SpA, priority 2000, dated 2004).

What was measured:
[1] = thermodynamic stability of cabergoline polymorphs; assay type: physicochemical
Description: It can be readily prepared by slurry of form I or mixture of form I and VII in a solvent at a temperature over 30° C. The importance of cabergoline form VII rests primarily (but not exclusively) in thermodynamic stability.
The present invention also provides a process for producing crystalline cabergoline Form VII by subjecting crystals of form I or a mixture of crystals form I and VII to a slurry procedure at a temperature over 30° C. Preferably, the process comprises suspending crystals of form I or a mixture of crystals form I and VII in an organic solvent, such as n-heptane, diethyl ether, or n-hexane, at a temperature of from +30° to +80° C., more preferably about 55° C. The resultant suspension is then stirred at this temperature for about from 24 to 120 hours, more preferably for about 48 hours.

prolactine = assay: inhibitory effect with regard prolactine; details: statement in words, no test described

- stability with respect to form I ([1]; compared with form I): greater stability
- thermodynamic stability of the polymorph ([1]; range of temperature between +30° and +80° C.): thermodynamically most stable polymorph
Compound: C=CCN1C[C@H](C(=O)N(CCCN(C)C)C(=O)NCC)C[C@@H]2c3cccc4[nH]cc(c34)C[C@H]21 [Form VII, 1((6-allylergolin-8beta-yl)-carbonyl)-1-(3-dimethylaminopropyl)-3-ethylurea]
- inhibitory effect with regard prolactine (prolactine): significant inhibitory effect
